Non-standard residues stand in square brackets, D forms with d. Residues, ends and D or L forms follow the SMILES beside them. No end group written: not given here. *: point of attachment. NMeY = CN[C@@H](Cc1ccc(O)cc1)C(=O)O; Agmatine = N=C(N)NCCCCN*; Nle = CCCC[C@H](N)C(=O)O; Orn = NCCC[C@H](N)C(=O)O; Abu = CC[C@H](N)C(=O)O; Ava = NCCCCC(=O)O; GABA = NCCCC(=O)O
What was measured:
[1] = test system: GH level; assay: In vivo endocrine activity (GH release), subcutaneous administration; conditions: rat; for GH releasing potency relative to JI-38 (=1): s.c. injection
Procedure: Subcutaneous Administration. Adult male rats were used and anesthetized with pentobarbital (6 mg/100 g, b.w.), by i.p. injection. […] Blood samples were taken from the jugular vein 5, 15 and/or 30 minutes after the injection. The blood samples were centrifuged, plasma was removed and the GH level was measured by ELISA. The results are summarized in terms of potency in Table 9.

[2] = target: T1, GHRH receptor (human pituitary membrane homogenates) (Homo sapiens, UniProt Q02643); assay: GHRH receptor binding, ligand competition with 125I-labeled JV-1-42 (Table 7); design: Normal human pituitaries were purchased from the National Hormone and Peptide Program; tissue National Hormone and Peptide Program (A. F. Parlow, Harbor-UCLA Medical Center, Torrance, Calif.); host or cells: normal human pituitary, membrane fraction / homogenate; conditions: JI-38 = 1
T1 sequence (Q02643 23-423): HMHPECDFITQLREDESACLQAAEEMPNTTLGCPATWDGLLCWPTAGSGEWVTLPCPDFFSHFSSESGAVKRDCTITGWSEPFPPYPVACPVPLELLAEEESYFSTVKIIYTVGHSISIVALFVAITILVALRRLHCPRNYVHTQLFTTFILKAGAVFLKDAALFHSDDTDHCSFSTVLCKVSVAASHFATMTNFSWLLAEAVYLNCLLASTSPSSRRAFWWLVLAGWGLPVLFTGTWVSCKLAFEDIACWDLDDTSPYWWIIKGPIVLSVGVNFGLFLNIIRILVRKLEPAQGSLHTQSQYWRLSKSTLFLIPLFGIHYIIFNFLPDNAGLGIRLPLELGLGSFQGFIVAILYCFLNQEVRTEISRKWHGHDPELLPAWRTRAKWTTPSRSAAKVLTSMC

`CCCC[C@H](NC(=O)[C@@H](NC(=O)[C@H](CC(=O)O)NC(=O)[C@H](CCC(N)=O)NC(=O)[C@H](CC(C)C)NC(=O)[C@H](CC(C)C)NC(=O)[C@H](CCCN)NC(=O)[C@H](CCCNC(=N)N)NC(=O)[C@H](C)NC(=O)[C@H](CO)NC(=O)[C@H](CC(C)C)NC(=O)[C@H](CCC(N)=O)NC(=O)[C@H](CC)NC(=O)[C@H](CC(C)C)NC(=O)[C@@H](NC(=O)[C@H](CCCN)NC(=O)[C@H](CCCNC(=N)N)NC(=O)[C@H](Cc1ccc(O)cc1)NC(=O)[C@H](CO)NC(=O)[C@H](CCC(N)=O)NC(=O)[C@@H](NC(=O)[C@H](Cc1ccccc1)NC(=O)[C@@H](NC(=O)[C@H](C)NC(=O)[C@H](CC(=O)O)NC(=O)[C@@H](C)NC(=O)[C@H](Cc1ccc(O)cc1)NC)[C@@H](C)CC)[C@@H](C)O)C(C)C)[C@@H](C)CC)C(=O)N[C@@H](CC(=O)O)C(=O)N[C@@H](CCCNC(=N)N)C(=O)NCCCCC(N)=O` [Peptide P-22325, [N—Me-Tyr^1, Gln^8, Orn^12, Abu^15, Orn^21, Nle^27, Asp^28, Apa^30]hGHRH (1-30)NH2] (H-[NMeY][dA]DAIFTQSYR[Orn]VL[Abu]QLSAR[Orn]LLQDI[Nle]DR[Ava]-NH2) was tested, and the “GH releasing potency relative to JI-38 (=1)” value ([1]; 5 min after) was 0.33, the “GH releasing potency relative to JI-38 (=1)” value ([1]; 15 min after) was 0.68 and the “GH releasing potency relative to JI-38 (=1)” value ([1]; 30 min after) was 1.03. For the same molecule, the “Relative affinitiy (Binding potency) vs JI-38” value (from here on “Relative affinitiy”) [2] was 1.14.
With `CCCC[C@H](NC(=O)[C@@H](NC(=O)[C@H](CC(=O)O)NC(=O)[C@H](CCC(N)=O)NC(=O)[C@H](CC(C)C)NC(=O)[C@H](CC(C)C)NC(=O)[C@H](CCCN)NC(=O)[C@H](CCCNC(=N)N)NC(=O)[C@H](C)NC(=O)[C@H](CO)NC(=O)[C@H](CC(C)C)NC(=O)[C@H](CCC(N)=O)NC(=O)[C@H](CC)NC(=O)[C@H](CC(C)C)NC(=O)[C@@H](NC(=O)[C@H](CCCN)NC(=O)[C@H](CCCNC(=N)N)NC(=O)[C@H](Cc1ccc(O)cc1)NC(=O)[C@H](CO)NC(=O)[C@H](CCC(N)=O)NC(=O)[C@@H](NC(=O)[C@H](Cc1ccccc1)NC(=O)[C@@H](NC(=O)[C@H](C)NC(=O)[C@H](CC(=O)O)NC(=O)[C@@H](C)NC(=O)[C@H](Cc1ccc(O)cc1)NC)[C@@H](C)CC)[C@@H](C)O)C(C)C)[C@@H](C)CC)C(=O)N[C@@H](CC(=O)O)C(=O)N[C@@H](CCCNC(=N)N)C(=O)NCCCCC(N)=O` [Peptide P-22326, [N—Me-Tyr^1, D-Ala^2, Gln^8, Orn^12, Abu^15, Orn^21, Nle^27, Asp^28, Apa^30]hGHRH(1-30)NH2] (H-[NMeY][dA]DAIFTQSYR[Orn]VL[Abu]QLSAR[Orn]LLQDI[Nle]DR[Ava]-NH2) the “Stimulation of growth hormone levels after s.c. administration (comparison in words)” value [1] was “stimulated greater growth hormone levels than hGHRH or JI-38” and the “Relative affinitiy” value [2] was 6.12.
In the case of `CCCC[C@H](NC(=O)[C@@H](NC(=O)[C@H](CC(=O)O)NC(=O)[C@H](CCC(N)=O)NC(=O)[C@H](CC(C)C)NC(=O)[C@H](CC(C)C)NC(=O)[C@H](CCCN)NC(=O)[C@H](CCCNC(=N)N)NC(=O)[C@H](C)NC(=O)[C@H](CO)NC(=O)[C@H](CC(C)C)NC(=O)[C@H](CCC(N)=O)NC(=O)[C@H](CC)NC(=O)[C@H](CC(C)C)NC(=O)[C@@H](NC(=O)[C@H](CCCN)NC(=O)[C@H](CCCNC(=N)N)NC(=O)[C@H](Cc1ccc(O)cc1)NC(=O)[C@H](CO)NC(=O)[C@H](CC(N)=O)NC(=O)[C@@H](NC(=O)[C@H](Cc1ccccc1)NC(=O)[C@@H](NC(=O)[C@H](C)NC(=O)[C@H](CC(=O)O)NC(=O)[C@@H](C)NC(=O)[C@H](Cc1ccc(O)cc1)NC)[C@@H](C)CC)[C@@H](C)O)C(C)C)[C@@H](C)CC)C(=O)N[C@@H](CO)C(=O)N[C@@H](CCCNC(=N)N)C(=O)NCCCC(N)=O` [Peptide P-25501, [N—Me-Tyr^1, D-Ala^2, Orn^12, Abu^15, Orn^21, Nle^27, Gab^30]hGHRH(1-30)NH2] (H-[NMeY][dA]DAIFTNSYR[Orn]VL[Abu]QLSAR[Orn]LLQDI[Nle]SR[GABA]-NH2), the “Stimulation of growth hormone levels after s.c. administration (comparison in words)” value [1] was “stimulated greater growth hormone levels than hGHRH or JI-38” and the “Relative affinitiy” value [2] was 4.07.
`CCCC[C@H](NC(=O)[C@@H](NC(=O)[C@H](CC(=O)O)NC(=O)[C@H](CCC(N)=O)NC(=O)[C@H](CC(C)C)NC(=O)[C@H](CC(C)C)NC(=O)[C@H](CCCN)NC(=O)[C@H](CCCNC(=N)N)NC(=O)[C@H](C)NC(=O)[C@H](CO)NC(=O)[C@H](CC(C)C)NC(=O)[C@H](CCC(N)=O)NC(=O)[C@H](CC)NC(=O)[C@H](CC(C)C)NC(=O)[C@@H](NC(=O)[C@H](CCCN)NC(=O)[C@H](CCCNC(=N)N)NC(=O)[C@H](Cc1ccc(O)cc1)NC(=O)[C@H](CO)NC(=O)[C@H](CCC(N)=O)NC(=O)[C@@H](NC(=O)[C@H](Cc1ccccc1)NC(=O)[C@@H](NC(=O)[C@H](C)NC(=O)[C@H](CC(=O)O)NC(=O)[C@@H](C)NC(=O)[C@H](Cc1ccc(O)cc1)NC)[C@@H](C)CC)[C@@H](C)O)C(C)C)[C@@H](C)CC)C(=O)N[C@@H](CC(=O)O)C(=O)N[C@@H](CCCNC(=N)N)C(=O)NCC` [Peptide P-28420, [N—Me-Tyr^1, D-Ala^2, Gln^8, Orn^12, Abu^15, Orn^21, Nle^27, Asp^28]hGHRH(1-29)NH—CH2—CH3] (H-[NMeY][dA]DAIFTQSYR[Orn]VL[Abu]QLSAR[Orn]LLQDI[Nle]DR-NHEt) was tested, and the “Relative affinitiy” value [2] was 8.37.
For `CCCC[C@H](NC(=O)[C@@H](NC(=O)[C@H](CC(=O)O)NC(=O)[C@H](CCC(N)=O)NC(=O)[C@H](CC(C)C)NC(=O)[C@H](CC(C)C)NC(=O)[C@H](CCCN)NC(=O)[C@H](CCCNC(=N)N)NC(=O)[C@H](C)NC(=O)[C@H](CO)NC(=O)[C@H](CC(C)C)NC(=O)[C@H](CCC(N)=O)NC(=O)[C@H](CC)NC(=O)[C@H](CC(C)C)NC(=O)[C@@H](NC(=O)[C@H](CCCN)NC(=O)[C@H](CCCNC(=N)N)NC(=O)[C@H](Cc1ccc(O)cc1)NC(=O)[C@H](CO)NC(=O)[C@H](CC(N)=O)NC(=O)[C@@H](NC(=O)[C@H](Cc1ccccc1)NC(=O)[C@@H](NC(=O)[C@H](C)NC(=O)[C@H](CC(=O)O)NC(=O)[C@@H](C)NC(=O)[C@H](Cc1ccc(O)cc1)NC)[C@@H](C)CC)[C@@H](C)O)C(C)C)[C@@H](C)CC)C(=O)N[C@@H](CC(=O)O)C(=O)N[C@@H](CCCNC(=N)N)C(=O)NCC` [Peptide P-28421, [N—Me-Tyr^1, D-Ala^2, Orn^12, Abu^15, Orn^21, Nle^27, Asp^28]hGHRH(1-29)NH—CH2—CH3] (H-[NMeY][dA]DAIFTNSYR[Orn]VL[Abu]QLSAR[Orn]LLQDI[Nle]DR-NHEt), the “Relative affinitiy” value [2] was 2.96.
For “[N—Me-Tyr^1, Gln^8, Orn^12, Abu^15, Orn^21, Nle^27, Agm^29]hGHRH(1-29) ([NMeY]ADAIFTQSYR[Orn]VL[Abu]QLSAR[Orn]LLQDI[Nle]S[Agmatine]) [Peptide P-20373]”, the “GH releasing potency relative to JI-38 (=1)” value ([1]; 15 min after) was 0.23 and the “GH releasing potency relative to JI-38 (=1)” value ([1]; 30 min after) was 0.88.
